The text below walks through data of BindingDB's records for patent US10669227 (THE RESEARCH FOUNDATION OF STATE UNIVERSITY OF NEW YORK, 2020).

This test deals with 72 kDa type IV collagenase (Homo sapiens, UniProt P08253). The test can be described thus: Inhibition of MMPs. The source says: However, it should be noted that excessive inhibition of MMP activity may not be desirable therapeutically because a minimal, or basal, level of MMPs may be necessary for optimal defense of the host.
Chain of 72 kDa type IV collagenase (P08253 whole entry): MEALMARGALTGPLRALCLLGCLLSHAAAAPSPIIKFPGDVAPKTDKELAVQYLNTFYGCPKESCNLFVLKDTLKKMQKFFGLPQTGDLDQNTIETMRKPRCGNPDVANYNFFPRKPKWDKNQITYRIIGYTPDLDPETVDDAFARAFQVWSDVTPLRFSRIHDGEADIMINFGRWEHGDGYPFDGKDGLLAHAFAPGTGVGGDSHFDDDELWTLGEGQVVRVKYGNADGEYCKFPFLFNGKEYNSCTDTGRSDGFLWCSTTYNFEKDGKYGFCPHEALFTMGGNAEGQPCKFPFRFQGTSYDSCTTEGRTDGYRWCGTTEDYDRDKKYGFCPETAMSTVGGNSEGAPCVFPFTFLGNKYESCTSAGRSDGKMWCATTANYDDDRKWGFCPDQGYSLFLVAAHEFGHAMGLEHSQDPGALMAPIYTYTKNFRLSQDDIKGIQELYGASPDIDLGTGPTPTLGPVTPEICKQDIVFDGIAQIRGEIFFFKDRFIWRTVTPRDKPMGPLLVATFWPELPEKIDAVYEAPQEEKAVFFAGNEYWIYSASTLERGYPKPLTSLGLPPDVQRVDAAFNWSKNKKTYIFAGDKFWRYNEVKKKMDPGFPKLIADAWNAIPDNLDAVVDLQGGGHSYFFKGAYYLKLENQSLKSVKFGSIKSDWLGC

Consider `COc1cc(/C=C/C(=O)C(C(=O)/C=C/c2ccc(O)c(CO)c2)C(=O)Nc2ccccc2)ccc1O` (stereo unspecified) [US10669227, Compound 6], for which the IC50 was 85 µM.

By IC50 is commonly meant the concentration needed to halve the response being measured. Higher therefore signals lower potency.
